Holding throughout (assay): relative viability (nuclei count vs DMSO), 5 days (fraction); higher = more cells survive
Compound in the assay “Doxorubicin + AZD7762”: COc1cccc2c1C(=O)c1c(O)c3c(c(O)c1C2=O)C[C@@](O)(C(=O)CO)C[C@@H]3O[C@H]1C[C@H](N)[C@H](O)[C@H](C)O1 [Doxorubicin] + NC(=O)Nc1cc(-c2cccc(F)c2)sc1C(=O)N[C@H]1CCCNC1 [AZD7762] (partner 0.2 µM)
A digest of the protocol:
(§1)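 After 5 days of treatment, lung cancer cells in 1536-well plates were fixed and stained in a single step (final 0.05% Triton X-100, 1% formaldehyde, 1 ug/ml Hoechst) and their nuclei counted on 4× images. Treatment had been applied by pin tool the day after seeding as one drug alone or as a fixed anchor-drug dose with five library-drug doses (not always all listed) in √10 steps. Relative viability is the nuclei count of treated wells divided by that of vehicle wells, and values are medians of duplicate plates.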

Compound in the assay “BAY61-3606 + Bortezomib”: COC1=C(C=C(C=C1)C2=CC3=NC=CN3C(=N2)NC4=C(C=CC=N4)C(=O)N)OC [BAY61-3606] + CC(C)C[C@H](NC(=O)[C@H](Cc1ccccc1)NC(=O)c1cnccn1)B(O)O [Bortezomib] (partner 0.002 µM)
A digest of the protocol:
as §1

Compound in the assay “BAY61-3606 + Crizotinib”: COC1=C(C=C(C=C1)C2=CC3=NC=CN3C(=N2)NC4=C(C=CC=N4)C(=O)N)OC [BAY61-3606] + C[C@@H](Oc1cc(-c2cnn(C3CCNCC3)c2)cnc1N)c1c(Cl)ccc(F)c1Cl [Crizotinib] (partner 1 µM)
A digest of the protocol: as §1

Compound in the assay “Doxorubicin + Bortezomib”: COc1cccc2c1C(=O)c1c(O)c3c(c(O)c1C2=O)C[C@@](O)(C(=O)CO)C[C@@H]3O[C@H]1C[C@H](N)[C@H](O)[C@H](C)O1 [Doxorubicin] + CC(C)C[C@H](NC(=O)[C@H](Cc1ccccc1)NC(=O)c1cnccn1)B(O)O [Bortezomib] (partner 0.002 µM)
Summed up: as §1

Here are results for six cell lines from the supplement of paper PMC10307832.

In the case of NCI-H1648, the relative viability with Doxorubicin + AZD7762 (first compound 0.001 µM) worked out at 0.762; with Doxorubicin + AZD7762 (first compound 0.003162 µM) it was 0.524; with Doxorubicin + AZD7762 (first compound 0.01 µM), 0.741; with Doxorubicin + AZD7762 (first compound 0.03162 µM), 0.843; with Doxorubicin + AZD7762 (first compound 0.1 µM) it was 0.654.
Take NCI-H1793: the relative viability with Doxorubicin + AZD7762 (first compound 0.003162 µM) stood at 0.432; with Doxorubicin + AZD7762 (first compound 0.01 µM) it was 0.574; in the assay with Doxorubicin + AZD7762 (first compound 0.03162 µM) it was 0.298; with Doxorubicin + AZD7762 (first compound 0.1 µM), 0.358.
As for SK-LU-1, the relative viability with BAY61-3606 + Bortezomib (first compound 0.02 µM) turned out to be 1.38; with BAY61-3606 + Bortezomib (first compound 0.06325 µM) it was 1.15; with BAY61-3606 + Bortezomib (first compound 0.2 µM) it was 1.12; in the assay with BAY61-3606 + Bortezomib (first compound 0.6325 µM), 1.21; with BAY61-3606 + Bortezomib (first compound 2 µM), 0.961; in the assay with BAY61-3606 + Crizotinib (first compound 0.02 µM), 1.08. Also, the relative viability with BAY61-3606 + Crizotinib (first compound 0.06325 µM) turned out to be 0.853; with BAY61-3606 + Crizotinib (first compound 0.2 µM) it was 0.904; with BAY61-3606 + Crizotinib (first compound 0.6325 µM) it was 0.889; with BAY61-3606 + Crizotinib (first compound 2 µM), 0.398; with Doxorubicin + Bortezomib (first compound 0.003162 µM), 1.19; with Doxorubicin + Bortezomib (first compound 0.01 µM) it was 1.25. The relative viability in the assay with Doxorubicin + Bortezomib (first compound 0.03162 µM) amounted to 0.945; in the assay with Doxorubicin + Bortezomib (first compound 0.1 µM), 0.671.
Turning to HCC-44, the relative viability in the assay with Doxorubicin + AZD7762 (first compound 0.001 µM) came to 0.938; in the assay with Doxorubicin + AZD7762 (first compound 0.003162 µM), 1.02; with Doxorubicin + AZD7762 (first compound 0.01 µM) it was 1.01; with Doxorubicin + AZD7762 (first compound 0.03162 µM) it was 1.04; with Doxorubicin + AZD7762 (first compound 0.1 µM), 0.993; in the assay with BAY61-3606 + Bortezomib (first compound 0.02 µM) it was 0.889. For the same cell line, the relative viability with BAY61-3606 + Bortezomib (first compound 0.06325 µM) turned out to be 0.847; in the assay with BAY61-3606 + Bortezomib (first compound 0.2 µM) it was 0.845; in the assay with BAY61-3606 + Bortezomib (first compound 0.6325 µM), 0.878; with BAY61-3606 + Bortezomib (first compound 2 µM), 0.947; in the assay with BAY61-3606 + Crizotinib (first compound 0.02 µM), 0.749; in the assay with BAY61-3606 + Crizotinib (first compound 0.06325 µM), 0.829. For the same cell line, the relative viability in the assay with BAY61-3606 + Crizotinib (first compound 0.2 µM) worked out at 0.777; in the assay with BAY61-3606 + Crizotinib (first compound 0.6325 µM), 0.907; with BAY61-3606 + Crizotinib (first compound 2 µM), 0.823; with Doxorubicin + Bortezomib (first compound 0.001 µM), 0.947; with Doxorubicin + Bortezomib (first compound 0.003162 µM), 0.988; with Doxorubicin + Bortezomib (first compound 0.01 µM) it was 0.891. In addition, the relative viability stood at 0.949 with Doxorubicin + Bortezomib (first compound 0.03162 µM) and 0.828 with Doxorubicin + Bortezomib (first compound 0.1 µM).
On to 201T, for which the relative viability in the assay with Doxorubicin + AZD7762 (first compound 0.001 µM) worked out at 0.626; in the assay with Doxorubicin + AZD7762 (first compound 0.003162 µM), 0.756; with Doxorubicin + AZD7762 (first compound 0.01 µM), 0.642; with Doxorubicin + AZD7762 (first compound 0.03162 µM), 0.556; in the assay with Doxorubicin + AZD7762 (first compound 0.1 µM) it was 0.577; with BAY61-3606 + Bortezomib (first compound 0.02 µM), 1.03. Besides, the relative viability in the assay with BAY61-3606 + Bortezomib (first compound 0.06325 µM) turned out to be 1.1; in the assay with BAY61-3606 + Bortezomib (first compound 0.2 µM) it was 1.09; with BAY61-3606 + Bortezomib (first compound 0.6325 µM) it was 1.13; in the assay with BAY61-3606 + Bortezomib (first compound 2 µM), 1.09; with BAY61-3606 + Crizotinib (first compound 0.02 µM), 1.1; with BAY61-3606 + Crizotinib (first compound 0.06325 µM), 0.996. Further, the relative viability was found to be 1.01 with BAY61-3606 + Crizotinib (first compound 0.2 µM); 1.02 with BAY61-3606 + Crizotinib (first compound 0.6325 µM); 1.03 with BAY61-3606 + Crizotinib (first compound 2 µM); 1.06 with Doxorubicin + Bortezomib (first compound 0.001 µM); 0.991 with Doxorubicin + Bortezomib (first compound 0.003162 µM); 1.14 with Doxorubicin + Bortezomib (first compound 0.01 µM). In addition, the relative viability with Doxorubicin + Bortezomib (first compound 0.03162 µM) was 1.15; in the assay with Doxorubicin + Bortezomib (first compound 0.1 µM) it was 1.05.
Consider HOP-62, for which the relative viability stood at 0.533 with Doxorubicin + AZD7762 (first compound 0.001 µM); 0.54 in the assay with Doxorubicin + AZD7762 (first compound 0.003162 µM); 0.519 with Doxorubicin + AZD7762 (first compound 0.01 µM); 0.527 in the assay with Doxorubicin + AZD7762 (first compound 0.03162 µM); 0.397 with Doxorubicin + AZD7762 (first compound 0.1 µM); 0.869 with BAY61-3606 + Bortezomib (first compound 0.02 µM). Further, the relative viability with BAY61-3606 + Bortezomib (first compound 0.2 µM) was 1.16; with BAY61-3606 + Bortezomib (first compound 0.6325 µM) it was 0.443; with BAY61-3606 + Bortezomib (first compound 2 µM), 0.723; with BAY61-3606 + Crizotinib (first compound 0.02 µM) it was 0.928; with BAY61-3606 + Crizotinib (first compound 0.2 µM) it was 0.823; with BAY61-3606 + Crizotinib (first compound 0.6325 µM), 1.06. Further, the relative viability in the assay with BAY61-3606 + Crizotinib (first compound 2 µM) came to 0.716; in the assay with Doxorubicin + Bortezomib (first compound 0.001 µM), 0.779; with Doxorubicin + Bortezomib (first compound 0.003162 µM), 0.864; in the assay with Doxorubicin + Bortezomib (first compound 0.01 µM), 0.657; with Doxorubicin + Bortezomib (first compound 0.03162 µM), 0.767; in the assay with Doxorubicin + Bortezomib (first compound 0.1 µM), 0.632.
